25 compounds from patent US20090004185A1, “AMINO-SUBSTITUTED QUINAZOLINE DERIVATIVES AS INHIBITORS OF BETA-CATENIN/TCF-4 PATHWAY AND CANCER TREATMENT AGENTS” (WYETH, priority 2007, published 2009) can be followed below.

Where a name gives a salt, the structure may show the parent alone. Some results are limits rather than exact numbers.

One data set relates to SV40-Luc. The data set can be described thus: SV40-Luc control luciferase reporter assay, SV 5A8 cell line (SV40-Luc and SV40-R-Luc), control for non-specific inhibitors. The data set is classed as cell-based, human. The conditions noted are these: Homo sapiens, SV5A8, 24 h, SV 5A8 cells derived from SW480; 24 hours of incubation with compound; ratio Firefly/Renilla luciferase. The method in brief: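 SW480-derived lines with integrated reporters: SV 5A8 (SV40 firefly plus SV40 Renilla), Tcf 33.13 and Tcf 22C11 (Tcf-4 firefly plus SV40 Renilla). Cells seeded 1×10^4/well, compounds added 20-24 h later at titrated concentrations (final DMSO 0.316%) for 24 h. Firefly/Renilla ratio, as % of control, gave IC50 (nM).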
On the technique in general: A reporter such as luciferase makes a cellular process visible.

A further data set concerns β-catenin/Tcf-4. The data set can be described thus: cells. In kind it is cell-based. The conditions noted are these: Homo sapiens, 24 hours of incubation with compound, ratio Firefly/Renilla luciferase. In a few lines:
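SW480-derived lines with integrated reporters (Tcf-4-driven firefly luciferase; SV40 firefly as specificity control; SV40 Renilla for cell number/toxicity), treated 24 hours with titrated compounds, final 0.316% DMSO. Dual-luciferase read-out; firefly/Renilla ratio as % of control, duplicate plates, IC50 (nM) from curve fit.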

Where [1] appears, read: SW480, 24 h, Tcf 33.13 cells derived from SW480.
Setting [2] is: Tcf22C11, 24 h, Tcf 22C11 cells derived from SW480.

Consider `C#Cc1ccc2c(NCc3ccc(NC(=O)c4ccc(F)cc4)cc3)nc(N(C)C)nc2c1` (as salt: HCl) [Example 108, N-[4-({[2-(dimethylamino)-7-ethynylquinazolin-4-yl]amino}methyl)phenyl]-4-fluorobenzamide], for which the melting point (in general, the temperature of the solid-liquid transition) is 250 °C.

Consider `CN(C)c1nc(NCc2ccc(NC(=O)c3ccc(Cl)nc3)cc2)c2ccc(I)cc2n1` (as salt: HCl) [Example 110, 6-chloro-N-[4-({[2-(dimethylamino)-7-iodoquinazolin-4-yl]amino}methyl)phenyl]nicotinamide], for which the melting point was 170 °C.

Regarding `C/C=C/c1ccc2c(NCc3ccc(NC(=O)c4ccc(Cl)nc4)cc3)nc(N(C)C)nc2c1` (as salt: HCl) [Example 112, 6-chloro-N-{4-[({2-(dimethylamino)-7-[(1E)-prop-1-en-1-yl]quinazolin-4-yl}amino)methyl]phenyl}nicotinamide], the melting point was 185 °C.

Turning to `O=C(O)CNc1nc(NCc2ccc(NC(=O)c3ccc(F)cc3)cc2)c2ccccc2n1` (as salt: HCl) [Example 127, N-[4-({4-[(4-fluorobenzoyl)amino]benzyl}amino)quinazolin-2-yl]glycine], the melting point is 235 °C.

As to `Cc1ccc2c(NCc3ccc(NC(=O)C4CCN(Cc5ccccc5)CC4)cc3)nc(N(C)C)nc2c1` (as salt: HCl) [Example 129, 1-benzyl-N-[4-({[2-(dimethylamino)-7-methylquinazolin-4-yl]amino}methyl)phenyl]piperidine-4-carboxamide], the melting point was 100 °C.

In turn, `Cc1ccc2c(NCc3ccc(NC(=O)c4ccc(Cl)nc4)cc3)nc(N(C)C)nc2c1` (as salt: hydrochloride) [Example 242, 6-chloro-N-[4-({[2-(dimethylamino)-7-methylquinazolin-4-yl]amino}methyl)phenyl]nicotinamide] came in with a melting point of 325 to 329 °C.

Take `CNc1nc(NCc2ccc(NC(=O)c3ccc(Cl)cc3)cc2)c2cc(Br)cc(C)c2n1` [Example 66, N-[4-({[6-bromo-8-methyl-2-(methylamino)quinazolin-4-yl]amino}methyl)phenyl]-4-chlorobenzamide]: the melting point was determined as 139 °C. Besides, the IC50 (usually the concentration at which inhibition is half-maximal) in the data set with SV40-Luc is greater than 9790 nM. For the same compound, in the data set with β-catenin/Tcf-4 (setting [1]), the IC50 came to 649 nM. Further, in the data set with β-catenin/Tcf-4 (setting [2]), the IC50 was determined as 1010 nM.

For the compound `CC(=O)c1ccc2c(NCc3ccc(NC(=O)c4ccc(F)cc4)cc3)nc(N(C)C)nc2c1` [Example 94, N-[4-({[7-acetyl-2-(dimethylamino)quinazolin-4-yl]amino}methyl)phenyl]-4-fluorobenzamide], the melting point came to 195 °C. Further, the IC50 in the data set on SV40-Luc is greater than 20200 nM.

With `O=C(Nc1ccc(CNc2nc(Cl)nc3cc(I)ccc23)cc1)c1ccc(Cl)nc1` [Example 109, 6-chloro-N-(4-{[(2-chloro-7-iodoquinazolin-4-yl)amino]methyl}phenyl)nicotinamide], the melting point worked out at 315 °C.

Turning to `O=C(Nc1ccc(CNc2nc(N3CCC3)nc3ccccc23)cc1)c1ccc(F)cc1` [Example 114, N-(4-{[(2-azetidin-1-ylquinazolin-4-yl)amino]methyl}phenyl)-4-fluorobenzamide], the melting point stood at 249 °C. Also, in the data set on SV40-Luc, the IC50 was greater than 5850 nM. Further, the IC50 in the data set with β-catenin/Tcf-4 (setting [1]) turned out to be 587 nM. The IC50 in the data set on β-catenin/Tcf-4 (setting [2]) worked out at 870 nM.

`O=C(Nc1ccc(CNc2nc(NC3CC3)nc3ccccc23)cc1)c1ccc(F)cc1` [Example 121, N-[4-({[2-(cyclopropylamino)quinazolin-4-yl]amino}methyl)phenyl]-4-fluorobenzamide]: the melting point stood at 189 °C. For the same compound, the IC50 in the data set with SV40-Luc is greater than 2920 nM. For the same compound, in the data set with β-catenin/Tcf-4 (setting [1]), the IC50 came to 1140 nM. In the data set with β-catenin/Tcf-4 (setting [2]), the IC50 amounted to 1720 nM.

For `CC(C)(C)OC(=O)CNc1nc(NCc2ccc(NC(=O)c3ccc(F)cc3)cc2)c2ccccc2n1` [Example 126, tert-butyl N-[4-({4-[(4-fluorobenzoyl)amino]benzyl}amino)quinazolin-2-yl]glycinate], the melting point worked out at 96 °C. For the same compound, the IC50 in the data set with SV40-Luc is greater than 2490 nM. Also, in the data set with β-catenin/Tcf-4 (setting [1]), the IC50 is 1070 nM. Moreover, the IC50 in the data set with β-catenin/Tcf-4 (setting [2]) turned out to be 1720 nM.

In the case of `CNc1nc(NCc2ccc(NC(=O)C3CCN(Cc4ccccc4)CC3)cc2)c2ccc(C)cc2n1` [Example 130, 1-benzyl-N-[4-({[7-methyl-2-(methylamino)quinazolin-4-yl]amino}methyl)phenyl]piperidine-4-carboxamide], the melting point came to 128 °C. For the same compound, in the data set on SV40-Luc, the IC50 was greater than 2350 nM. Moreover, the half-inhibitory concentration (IC50) in the data set with β-catenin/Tcf-4 (setting [1]) came out at 699 nM. The IC50 in the data set with β-catenin/Tcf-4 (setting [2]) is 798 nM.

In turn, `Cc1ccc2c(NCc3ccc(NC(=O)C4CCN(Cc5ccccc5)CC4)cc3)nc(N3CCCCCC3)nc2c1` [Example 131, N-(4-{[(2-azepan-1-yl-7-methylquinazolin-4-yl)amino]methyl}phenyl)-1-benzylpiperidine-4-carboxamide] had a melting point of 66 °C. Moreover, the IC50 in the data set on SV40-Luc is greater than 7870 nM. In addition, the IC50 with β-catenin/Tcf-4 (setting [1]) was determined as 966 nM. Further, in the data set with β-catenin/Tcf-4 (setting [2]), the IC50 was 1040 nM.

As for `CCNc1nc(NCc2ccc(NC(=O)C3CCN(Cc4ccccc4)CC3)cc2)c2ccc(C)cc2n1` [Example 132, 1-benzyl-N-[4-({[2-(ethylamino)-7-methylquinazolin-4-yl]amino}methyl)phenyl]piperidine-4-carboxamide], the melting point is 55 °C. The IC50 in the data set with SV40-Luc is greater than 2150 nM. Moreover, the IC50 in the data set with β-catenin/Tcf-4 (setting [1]) was 1140 nM. Further, in the data set with β-catenin/Tcf-4 (setting [2]), the IC50 was found to be 1390 nM.

In turn, `Cc1ccc2c(NCc3ccc(NC(=O)C4CCN(Cc5ccccc5)CC4)cc3)nc(N3CCCC3)nc2c1` [Example 133, 1-benzyl-N-(4-{[(7-methyl-2-pyrrolidin-1-ylquinazolin-4-yl)amino]methyl}phenyl)piperidine-4-carboxamide] gave a melting point of 96 °C. Also, the IC50 with SV40-Luc was greater than 9350 nM. For the same compound, the IC50 with β-catenin/Tcf-4 (setting [1]) was 793 nM. The IC50 in the data set with β-catenin/Tcf-4 (setting [2]) turned out to be 669 nM.

As for `C=Cc1ccc2c(NCc3ccc(NC(=O)C4CCN(Cc5ccccc5)CC4)cc3)nc(N(C)C)nc2c1` [Example 150, 1-benzyl-N-[4-({[2-(dimethylamino)-7-vinylquinazolin-4-yl]amino}methyl)phenyl]piperidine-4-carboxamide], the melting point was 180 °C. The IC50 with SV40-Luc was greater than 2400 nM. For the same compound, the IC50 with β-catenin/Tcf-4 (setting [1]) was 169 nM. Moreover, the IC50 with β-catenin/Tcf-4 (setting [2]) was found to be 268 nM.

As to `C/C=C/c1ccc2c(NCc3ccc(NC(=O)C4CCN(Cc5ccccc5)CC4)cc3)nc(N(C)C)nc2c1` [Example 151, 1-benzyl-N-{4-[({2-(dimethylamino)-7-[(1E)-prop-1-en-1-yl]quinazolin-4-yl}amino)methyl]phenyl}-piperidine-4-carboxamide], the melting point came out at 154 °C. The IC50 with SV40-Luc was greater than 2530 nM. Further, the concentration for half-maximal inhibition (IC50) with β-catenin/Tcf-4 (setting [1]) turned out to be 726 nM. The IC50 in the data set on β-catenin/Tcf-4 (setting [2]) is 606 nM.

With `CNc1nc(NCc2ccc(NC(=O)c3ccc(Cl)nc3)cc2)c2cc([N+](=O)[O-])ccc2n1` [Example 184, 6-chloro-N-[4-({[2-(methylamino)-6-nitroquinazolin-4-yl]amino}methyl)phenyl]nicotinamide], the melting point fell in the range of 305 to 307 °C. Also, the concentration for half-maximal inhibition (IC50) in the data set on SV40-Luc was greater than 21600 nM. Further, the IC50 with β-catenin/Tcf-4 (setting [1]) was greater than 21600 nM. Moreover, the IC50 in the data set on β-catenin/Tcf-4 (setting [2]) is greater than 21600 nM.

`CNc1nc(NCc2ccc(NC(=O)c3ccc(Cl)nc3)cc2)c2c(C)cccc2n1` [Example 194, 6-chloro-N-[4-({[5-methyl-2-(methylamino)quinazolin-4-yl]amino}methyl)phenyl]nicotinamide] yielded a melting point of 233 to 236 °C. Besides, in the data set with SV40-Luc, the IC50 was greater than 5780 nM.

As for `CNc1nc(NCc2ccc(NC(=O)c3ccc(Cl)cc3)cc2)c2ccc(C)cc2n1` [Example 195, 4-chloro-N-[4-({[7-methyl-2-(methylamino)quinazolin-4-yl]amino}methyl)phenyl]benzamide], the melting point was 264 to 266 °C. The IC50 in the data set on SV40-Luc is greater than 1160 nM.

Take `Cc1ccc2c(NCc3ccc(NC(=O)c4ccc(Cl)cc4)cc3)nc(N3CCCCCC3)nc2c1` [Example 198, N-(4-{[(2-azepan-1-yl-7-methylquinazolin-4-yl)amino]methyl}phenyl)-4-chlorobenzamide]: the melting point lay in the range of 192 to 194 °C. Further, in the data set with SV40-Luc, the IC50 is greater than 2500 nM. The IC50 with β-catenin/Tcf-4 (setting [1]) came out at 253 nM. The IC50 with β-catenin/Tcf-4 (setting [2]) came to 346 nM.

The compound `CCCNc1nc(NCc2ccc(NC(=O)c3ccc(F)cc3)cc2)c2ccc(C)cc2n1` [Example 231, 4-fluoro-N-[4-({[7-methyl-2-(propylamino)quinazolin-4-yl]amino}methyl)phenyl]benzamide] registered a melting point of 170 to 174 °C. Also, the IC50 in the data set with SV40-Luc is greater than 2820 nM.

Compound `Cc1ccc2c(NCc3ccc(NC(=O)c4ccc(F)cc4)cc3)nc(NCCc3ccccn3)nc2c1` [Example 232, 4-fluoro-N-{4-[({7-methyl-2-[(2-pyridin-2-ylethyl)amino]quinazolin-4-yl}amino)methyl]phenyl}benzamide] returned a melting point of 112 to 115 °C. In addition, the IC50 in the data set with SV40-Luc was greater than 2470 nM. Besides, the IC50 with β-catenin/Tcf-4 (setting [1]) came out at 292 nM. Also, the IC50 in the data set with β-catenin/Tcf-4 (setting [2]) is 408 nM.

Regarding `Cc1ccc2c(NCc3ccc(NC(=O)c4ccc(F)cc4)cc3)nc(N3CCN[C@@H](C)C3)nc2c1` [Example 234, 4-fluoro-N-{4-[({7-methyl-2-[(3S)-3-methylpiperazin-1-yl]quinazolin-4-yl}amino)methyl]phenyl}benzamide], the melting point fell in the range of 200 to 202 °C. Besides, the IC50 in the data set with SV40-Luc was greater than 6780 nM.
